# Source: the NIST ThermoML archive (doi:10.1016/j.fluid.2007.03.013)
# ± gives the expanded uncertainty stated by the source.
# Experiment: refractive index (Na D-line) (dimensionless)
# Conditions: 293.1 K; 101.33 kPa; Liquid; Standard Abbe refractometry
row,refractive index,Structure (SMILES)
1,1.423 ± 0.0007,CC1CCCCC1 [methylcyclohexane]
2,1.484 ± 0.0007,O=CN1CCOCC1 [N-formylmorpholine]
